Experimental data from patent publication US12122811B2, “BDNF mimetic peptide amphiphiles” (Northwestern University, priority 2018, dated 2024).
Positions of bridges follow the written chain, without caps; N, C: chain ends. Non-standard residues stand in square brackets, D forms with d. Residues, ends and D or L forms follow the SMILES beside them. Chains are numbered I, II in the order given. *: point of attachment. PEG6 = NCCOCCOCCOCCOCCOCCOCCC(=O)O; Palmitoyl = CCCCCCCCCCCCCCCC(=O)*

Key:
[1] = tested on: primary mouse cortical neurons; experiment: Morphometric analysis of neurites (MAP2, SMI312 immunocytochemistry); type: cell-based; conditions: 24 h
Procedure: For morphometric analysis and cell viability assays, cells were cultured in 24 or 48 well plates at a density of 25,000 or 40,000 cells/well respectively, for three days before being treated. Cells were then treated for 24 hours, 3 days or 7 DIV. Samples were fixed in 4% PFA for 15 min (20 min for gels) at room temperature (RT) for immunofluorescence studies.
Immunofluorescence. For immunofluorescence, fixed samples (4% PFA for 15 min at RT) were incubated with primary antibodies overnight and Alexa 488 or Alexa 555 secondary antibodies (1:2000, Invitrogen) were used for 2 h at room temperature. The following primary antibodies were used: mouse anti-Tuj-1 (neuronal marker 1:4000, BioLegend), rabbit anti-Tuj-1 (neuronal marker, 1:4000, BioLegend) rabbit anti-MAP2 (marker for mature neurons 1:2000, BioLegend), mouse anti-SMI312 (axonal filament marker 1:1000, BioLegend), rabbit anti-Synaptophysin (marker for synaptic vesicles, 1:1000, Abcam) and DAPI (nuclear stain, 1:2000, Invitrogen). If not already in a glass bottom plate (MatTek), the preparations were mounted with Immu-Mount (Thermo Scientific) for imaging.
Imaging and Morphometric Analysis. Throughout the experiments, a digital camera (Nikon) mounted on a tissue culture microscope was used to take bright field images of cells. Nikon A1R confocal laser-scanning microscope with GaAsP detectors was used to visualize and image fluorescent preparations. Images were processed using an ImageJ (National Institutes of Health) plugin. Confocal images were reconstructed by NIS Elements Advanced Research Microscope Imaging software (version 4.20) or Imaris program (version 8.1, Bitplane Scientific software) for 3D interactive data viewing with normal or shadow projections of cells screened under Nikon A1R confocal laser-scanning microscope with GaAsP detectors.
For morphometric analysis, NeuronJ was used to trace and measure neuronal extensions.^4 For quantification of number of primary neurites and neurite length, a minimum of 60 randomly selected cells were analyzed with a minimum of 2 independent batches of culture for each condition. The images were arranged in Adobe Photoshop (v.7.0), with adjustments for contrast, brightness and color balance to obtain optimal visual reproduction of data.

cortical neurons [2] = experiment: Infiltration and maturation of cortical neurons on 3D PA gel scaffolds; type: cell-based, mouse; conditions: neurons on gels, one week
Procedure: Gels were made using annealed PAs prepared with methods described herein 1. BDNF native protein or BDNF peptide were incorporated by mixing at 10 nM or 0.5 uM respectively, with E2 Filler PA gel at 1 wt % while it was in its liquid state. Silicon isolators with adhesive (Invitrogen) were placed on PDL coated glass coverslips. 70 μL of PA liquid was pipetted into the circular silicon well and a Transwell insert was placed flush with the top of the well of the silicon insert. This step ensured a flat, even thickness for all gels. Gelling solution comprised of 125 mM NaCl, 3 mM KCl, and 25 mM CaCl2 was pipetted into the Transwell insert and allowed to slowly soak down into the material from the top. The insert prevented the gel from swelling more than the thickness of the silicon isolator. All gels were incubated at 37° C. for 5 min before removing the Transwell insert.
Infiltration Study. Gels were prepared as described in 2.1.2. Gels were then rinsed with media one time before cells were seeded on top at a density of approximately 42,000 cells/well. Cells were cultured for one week in vitro. Half of the gels were analyzed by patch clamp analysis (see section 3.4.9. Other gels were fixed with 4% PFA to perform infiltration studies. Cell were stained for MAP2, TUJ-1 and DAPI using immunocytochemistry methods described previously. Confocal microscopy was used to make z-stack reconstructions of each gel. The MultiMeasure function in the ROI manager of ImageJ was used to measure the depth of pixels for each channel which was then plotted as intensity vs depth in the gel. The average intensity of MAP2 was measured by averaging the mean intensities obtained from maximum intensity projections of z-stacks images of gels.

[3] = Dynamic light scattering (DLS); type: physicochemical; conditions: BDNF PA at 100 mol %
Procedure: 2.2.2. Dynamic Light Scattering (DLS). Measurements were performed on a Malvern Zetasizer Nano ZSP light scattering spectrometer. Samples were prepared as previously described. During the sample measurement, the temperature was kept at 25° C. The sample was equilibrated for 30 seconds before each measurement was taken. The duration of each measurement was 10 seconds and the measurement angle was 173° backscatter. The attenuator was determined by the instrument automatically, as was the number of accumulations for each run. Each measurement run was repeated 3 times.

cortical neurons [4] = experiment: Whole-cell current-clamp (patch clamp) recordings of neurons on PA gels; type: cell-based, mouse; conditions: neurons on gels up to one week; relative to E2 Filler PA
Procedure: Patch Clamp. Whole-cell current-clamp recordings were made from visually identified primary cultured neurons using inverted Olympus IX51 microscope equipped with a 40× objective. Recording pipettes were made of glass capillaries using a horizontal Sutter P-1000 puller yielding a 3-5 MΩ resistance pipette when filled with standard intracellular solution containing (in mM): 120 K-MeSO4, 10 KCl, 10 HEPES, 10 Na2-phosphocreatine, 4 Mg-ATP, 0.4 Na3-GTP, pH 7.3; 285-290 mOsm. Gels with neurons were continuously perfused with standard oxygenated aCSF bath solution (in mM): 125 NaCl, 26 NaHCO3, 2.5 KCl, 1.25 NaH2PO4, 1 MgSO4, 25 glucose, 2 CaCl2, pH 7.4 at 32-34° C. Whole-cell current-clamp data was acquired using an […] amplifier (Molecular Devices, USA) and digitized at 10 kHz (filtered at 3 kHz) with the neurons held at −65 mV. Resting membrane potential was measured immediately after breaking into the cell. Input resistance was calculated as the slope of the voltage-current curve using 500 ms current steps from −50 pA to 30 pA at 10 pA steps. There were no differences in resting membrane potentials or input resistance between the three groups. […] AP threshold was calculated where the first derivative of the up phase of the trace equals 5 mV/ms. […] Data was analyzed using MATLAB protocols designed specifically for these experiments.

For `CCCCCCCCCCCCCCCC(=O)N[C@H](C(=O)N[C@H](C(=O)N[C@@H](C)C(=O)N[C@@H](C)C(=O)N[C@@H](CCC(=O)O)C(=O)N[C@@H](CCC(=O)O)C(=O)N[C@@H](CCC(=O)O)C(=O)N[C@@H](CCC(=O)O)C(=O)NCCOCCOCCOCCOCCOCCOCCC(=O)NCCCC[C@@H]1NC(=O)[C@H]2CCCN2C(=O)[C@H](CCCNC(=N)N)NC(=O)[C@H](CCCCN)NC(=O)[C@H](CCCCN)NC1=O)C(C)C)C(C)C` [BDNF PA, RKK(aK)(dP)-(PEG6 Spacer)-EEEEAAVV-C16 (SEQ ID NO: 5)] (I: Palmitoyl-VVAAEEEE[PEG6] / II: cyclo(KKKR[dP]); amide I:C-II:1), the “neurite number, BDNF PA versus native BDNF protein” value [1] was “no statistical differences”, the “number of primary neurites” value ([1]; vs control conditions) was “positive tendency” and the “number of secondary neurites” value ([1]; vs control conditions) was “significant increase”. For the same molecule, the “total dendrite and axon length” value ([1]; vs native BDNF protein and control conditions) was “significant increase”, the “distance that neurites infiltrated from the top of the scaffold” value (cortical neurons [2]) was 179.7±6.0 μm and the “infiltration distance relative to all the other conditions” value (cortical neurons [2]) was “nearly four-and-a-half times higher”. For the same molecule, the “normalized average of MAP2 intensity” value (cortical neurons [2]) was 0.64±0.15, the “micelle diameter (DLS)” value [3] was roughly 12 nm and the “number of action potentials” value (cortical neurons [4]) was “higher number of action potentials”.
